Results from US12540150B1, “Fluorogenic probe using a Mislow-Evans rearrangement for real-time imaging of hydrogen peroxide” (University of Pittsburgh—Of the Commonwealth System of …, priority 2020, dated 2026).
Several values for one entry are separate records, joined by “and”; a condition that tells them apart may be missing. Identical values can stand only once.

Key:
[1] = Kinetics of the reaction of 1 with H2O2
[2] = Selectivity of 1: reaction with ONOO^−; conditions: for Fluorescence Intensity: pH 7, 25° C., 15 min
Procedure: Next, it was tested whether OCl^− and ONOO^− (peroxynitrite), would react with 1. A solution of 0, 1, 10, or 22 μM ONOO— in 0.3 M NaOH (20 μL) or 1, 10, 100, or 1000 μM NaOCl in water (20 μL) was added to the wells of a black 96-well plate. A solution of 10 μM 1 in DMSO (560 μL) and 5:95 MeCN/1.2 M phosphate pH 7 buffer (4.48 mL) was made; this solution (180 μL) was transferred to each of the wells. The samples were allowed to incubate at 25° C. for 15 min before the fluorescence was measured. […] This may be attributed to trace amounts of H2O2 in the ONOO^− solution.

[3] = Selectivity of 1: reaction with NO·; conditions: for Fluorescence: 15 min minus 0 min
Procedure: The probe 1 was also exposed to NO· at various concentrations. A NO· solution was generated by the addition of H2SO4 to NaNO2. A round-bottom flask containing a saturated solution of NaNO2 was connected to a series of three bubblers and one Erlenmeyer flask; the first two bubblers contained 30% NaOH, and the third contained ultrapure water. The flask contained ultrapure water (10 mL). The solutions were degassed with argon for 30 min. Then a 2 M solution of H2SO4 (1 mL) was added to the saturated NaNO2 to produce a 1.8 mM solution of NO· (assuming saturation at 25° C.) in the flask. A solution of 10 μM 1 in DMSO (20 μL) was added to 5:95 acetonitrile/50 mM pH 7 potassium phosphate buffer (160 μL). The NO· solution (20 μL) was then added to the mixture containing 1. The fluorescence was measured immediately and again after 15 min at 25° C. Similar results as the results for NO2^− and NO3^− were obtained for NO· (FIG. 22 and Table 13). The data in Table 13 is the fluorescence at 15 min minus the fluorescence at 0 min.

[4] = Response of probe 1 to H2O2 at various pHs; conditions: for Fluorescence: 23° C., 20 min
Procedure: The probe's response to H2O2 in the pH 4-7.3 range was studied to determine whether this technology would work in acidic and neutral intracellular environments, such as lysosomes (pH 5), Golgi apparatus (pH 6.4-6.8), mitochondria (pH 6.9-8.0), and cytoplasm (pH 7.1-7.6). A solution of 50 mM phosphate pH 7.3 buffer was treated with 1.0 N HCl to adjust the pH to 7.0, 6.5, 5.9, 5.4, 4.5, or 4.1. The concentration of the resulting buffers was adjusted with water to 25 mM phosphate buffer. Solutions of 25 mM phosphate pH 7.3, 7.0, 6.5, 5.9, 5.4, 4.5, or 4.1 buffer ([…]) and 100 μM probe 1 in MeOH were treated with 100 μM, 10 μM or 0 μM H2O2 in water. The solutions were allowed to incubate at 23° C. for 20 min prior to measuring the fluorescence.

Oc1ccc2c(c1)Oc1cc(O/C=C/C[Se]c3ccccc3)ccc1[C@@]21OCc2ccccc21 [Compound 1, (S,E)-6′-((3-(Phenylselanyl)prop-1-en-1-yl)oxy)-3H-spiro[isobenzofuran-1,9′-xanthen]-3′-ol]
F-F0 (515 nm) ([1]; [H2O2] = 1.25 mM, 810 s): 614,783 and 663,765 and 683,016 | F-F0 (515 nm) ([1]; [H2O2] = 1.25 mM, 870 s): 614,819 and 662,173 and 685,799 | F-F0 (515 nm) ([1]; [H2O2] = 2.5 mM, 30 s): 425,024 and 405,551 and 398,309 | [1] ([1]; [H2O2] = 2.5 mM, 30 s): 0.6285 µM and 0.6785 µM and 0.6971 µM | F-F0 (515 nm) ([1]; [H2O2] = 2.5 mM, 90 s): 539,467 and 612,814 and 630,136 | F-F0 (515 nm) ([1]; [H2O2] = 2.5 mM, 150 s): 601,940 and 657,981 and 671,946 | F-F0 (515 nm) ([1]; [H2O2] = 2.5 mM, 210 s): 627,168 and 666,435 and 680,181 | F-F0 (515 nm) ([1]; [H2O2] = 2.5 mM, 270 s): 636,230 and 665,190 and 679,366 | F-F0 (515 nm) ([1]; [H2O2] = 2.5 mM, 330 s): 638,753 and 666,173 and 674,138 | F-F0 (515 nm) ([1]; [H2O2] = 2.5 mM, 390 s): 641,141 and 663,899 and 664,993 | F-F0 (515 nm) ([1]; [H2O2] = 2.5 mM, 450 s): 640,270 and 661,893 and 664,416 | F-F0 (515 nm) ([1]; [H2O2] = 2.5 mM, 510 s): 639,383 and 659,509 and 664,003 | F-F0 (515 nm) ([1]; [H2O2] = 2.5 mM, 570 s): 637,346 and 658,746 and 663,104 | F-F0 (515 nm) ([1]; [H2O2] = 2.5 mM, 630 s): 637,422 and 656,826 and 661,222 | F-F0 (515 nm) ([1]; [H2O2] = 2.5 mM, 690 s): 636,174 and 654,911 and 659,002 | F-F0 (515 nm) ([1]; [H2O2] = 2.5 mM, 750 s): 634,294 and 654,494 and 657,410 | F-F0 (515 nm) ([1]; [H2O2] = 2.5 mM, 810 s): 631,953 and 653,606 and 654,988 | F-F0 (515 nm) ([1]; [H2O2] = 2.5 mM, 870 s): 631,346 and 651,140 and 655,338 | fluorescence change with increasing ONOO^− concentration [2]: slight increase in fluorescence intensity | Fluorescence Intensity ([2]; 100 nM ONOO^−): 23,606 and 21,961 and 20,229 | Fluorescence Intensity ([2]; 1.0 μM ONOO^−): 46,271 and 39,358 and 35,209 | Fluorescence Intensity ([2]; 2.2 μM ONOO^−−): 63,954 and 56,351 and 61,987 | reaction with NO· [3]: did not react | Fluorescence ([3]; 0 μM NO· or H2O2, pH 7, 25° C.): 4,567 and 5,018 and 6,300 | Fluorescence ([3]; 0.1 μM NO·): 5,344 and 5,827 and 5,393 | Fluorescence ([3]; 1 μM NO·): 6,268 and 5,961 and 5,430 | Fluorescence ([3]; 10 μM NO·): 6,104 and 6,207 and 5,735 | pH dependence of fluorescence signals with H2O2 ([4]; pH 4-7.3 range): higher when the pH was above 5.4 | Fluorescence ([4]; pH 4.10, 0 μM H2O2): 28,470 and 25,037 and 28,661 | Fluorescence ([4]; pH 4.10, 1 μM H2O2): 35,884 and 30,492 and 30,471 | Fluorescence ([4]; pH 4.10, 10 μM H2O2): 51,632 and 54,097 and 52,472 | Fluorescence ([4]; pH 4.50, 0 μM H2O2): 29,770 and 29,064 and 29,069 | Fluorescence ([4]; pH 4.50, 1 μM H2O2): 40,599 and 31,790 and 33,283 | Fluorescence ([4]; pH 4.50, 10 μM H2O2): 55,577 and 54,961 and 56,315 | Fluorescence ([4]; pH 5.40, 0 μM H2O2): 56,192 and 56,334 and 52,671 | Fluorescence ([4]; pH 5.40, 1 μM H2O2): 61,365 and 63,294 and 60,943 | Fluorescence ([4]; pH 5.40, 10 μM H2O2): 106,516 and 107,311 and 103,354 | Fluorescence ([4]; pH 5.90, 0 μM H2O2): 87,499 and 89,708 and 90,424 | Fluorescence ([4]; pH 5.90, 1 μM H2O2): 113,703 and 111,368 and 107,545 | Fluorescence ([4]; pH 5.90, 10 μM H2O2): 167,836 and 187,633 and 154,515 | Fluorescence ([4]; pH 6.50, 0 μM H2O2): 155,151 and 183,747 and 149,421 | Fluorescence ([4]; pH 6.50, 1 μM H2O2): 203,661 and 188,050 and 184,986 | Fluorescence ([4]; pH 6.50, 10 μM H2O2): 332,896 and 341,948 and 335,544 | Fluorescence ([4]; pH 7.00, 0 μM H2O2): 199,101 and 207,136 and 187,676 | Fluorescence ([4]; pH 7.00, 1 μM H2O2): 247,464 and 221,499 and 229,530 | Fluorescence ([4]; pH 7.00, 10 μM H2O2): 389,464 and 369,467 and 390,006 | Fluorescence ([4]; pH 7.30, 0 μM H2O2): 189,898 and 183,424 and 169,054 | Fluorescence ([4]; pH 7.30, 1 μM H2O2): 228,368 and 208,913 and 186,665 | Fluorescence ([4]; pH 7.30, 10 μM H2O2): 373,555 and 388,584 and 401,912
